Measured values published in a melting point compilation (Tetko et al.; mined from patent text by program, amines drawn as free bases though some values may be those of a salt).

Compound | melting point [°C]
Cn1nc2ccccc2c1C(=O)NC1CCN(Cc2ccccc2)CC1 | 167 to 169
CCOc1cc2c(Nc3ccc(OC)cc3)c(CO)cnc2nc1C | 193 to 197
c1ccc(-c2nc(-c3ccc(CN4CCCCCC4)s3)n[nH]2)nc1 | 160 to 162
ClCCCCn1c2c(c3ccccc31)CCSc1ccccc1-2 | 75
Fc1ccc(Cn2c(OC3CCNCC3)nc3cncnc32)cc1 | 79.3
Cc1cccc2c1C=Cc1ccccc1C2(C)NO (stereo not given) | 127 to 130
O=C(Oc1cc(F)ccc1Br)c1cc2cc(CCl)ccc2oc1=O | 203 to 205
O=C(NC12CC3CC(CC(C3)C1)C2)c1cccc2c1OCCO2 | 137
CCOC(=O)c1c(C(F)(F)F)nc(C(F)F)c(C(=O)OC)c1-n1cccn1 | 42 to 52
N#CCON=C(CCN1CCN(c2ccccn2)CC1)c1ccccc1 | 127 to 128
Cc1noc(NS(=O)(=O)c2ccc(-c3ccc(C(=O)O)cc3)s2)c1Br | 219 to 228
CC(C)(C(N)=O)c1nnc2ccc(OCCCN3CCC(OC(c4ccccc4)c4ccccc4)CC3)nn12 | 133 to 136
CC(C)C(C)NC1=NS(=O)(=O)c2cc(Cl)c(Cl)cc2N1 (stereo not given) | 242 to 250
CC=CCn1c(C)c(C)c2cnnc(SCc3ccc(F)cc3F)c21 | 122 to 127
COC(=O)c1csc(C)c1NS(=O)(=O)NC(=O)Nc1nc(OC)cc(OC)n1 | 174
CC(C)c1ccc(N(Cc2ccc(N(C)C)cc2)C(=O)C2CCCc3cc(OCc4ccccc4)ccc32)cc1 (stereo not given) | 107 to 109
ClCc1cnc2ccc(Cl)cc2c1Cl | 102 to 105
CC(C)NCCNc1nc(Nc2cccc(NS(C)(=O)=O)c2)nc2[nH]ccc12 | 127 to 131
OC(Cn1cncn1)c1ccc(Cl)cc1Cl (stereo not given) | 87
Cc1ccc(CSc2c(O)cc(C)oc2=O)cc1 | 134 to 135

Compound | melting point [°C]
CC(Cc1cc(I)c(Oc2ccc(O)cc2)c(I)c1)(NC=O)C(=O)O (stereo not given) | 221 to 223
CCOc1cccc(CC(=O)O)c1OCCCc1cn(-c2ccc(C(F)(F)F)cn2)nc1C(CC)CC | 83 to 84
COC(=O)CCCN1CCC(NC(=O)c2ccccc2)CC1 | 116
Nc1c(-c2ccccc2)sc2ccccc12 | 110 to 112
CCOC(=O)CCCc1csc(NC(=O)NCc2ccccc2)n1 | 157
Cc1nc(CC2CCN(c3ccccc3)CC2)nc(C(=O)NCC(=O)O)c1O | 141
Cc1ccc(S(=O)(=O)OC[C@H]2OC(=O)N[C@H]2Cc2ccccc2)cc1 | 149 to 150
O=c1[nH]c2cc(Cl)c(-n3cccc3)cc2cc1P(=O)(O)O | 195 to 200
CCOC(=O)CCCOc1cccc(-c2n[nH]c3c2Cc2ccccc2-3)c1 | 142 to 148
NC(=O)c1cc2cc(Br)ccc2o1 | 210 to 213
C[C@@H]1OC(=O)N(C(=O)O)[C@H]1c1ccc(F)c(F)c1 (relative stereo) | 80 to 83
CC/C(=C\CCC(O)(CC)CC)c1ccc(CCc2ccc(CO)c(CO)c2)s1 | 77
Cc1oc(-c2ccccc2)nc1COc1ccc(O)cc1 | 168 to 169
CCN(C(=O)C(C)(C)C)c1cccc(-c2ccc3nnc(C)n3n2)c1 | 168 to 170
c1cc(-c2cn3c(n2)CCC3)ccn1 | 140 to 141
Cc1c(N)c(C(C)C)cc(Cc2cc(C(C)C)c(N)c(C)c2Cl)c1Cl | 118 to 120
CCCCCCCCCCNC(=O)c1ccc(C(=O)NCCCCCCCCCC)c(N(CC(=O)O)CC(=O)O)c1 | 135 to 136
Cc1cc(C2=C(C=CC3CC(O)CC(=O)O3)C(C)(C)CC(N3CCCC3)C2)ccc1F (stereo not given) | 120 to 123
NC(=O)C(CCCCCOc1c(Cl)ccc(C=O)c1[N+](=O)[O-])N1CCCCC1 (stereo not given) | 98 to 99
CCCCCCCCOC(=O)c1[nH]c2cccc3c2c1CCNC3=O | 170 to 171
